In one assay the test system is Schaffer collateral-CA1 pathway of rat hippocampal slices. Briefly: LTP induction in Schaffer collateral-CA1 pathway of hippocampal slices (fEPSP slope). Format: cell-based, Wistar rats. As to conditions: fEPSP slope 60 min after weak tetanus (50 Hz, 0.5 s); 1.6 μM perfused 3 min before and 3 min after tetanus.
In turn, `CNCc1ccc(-c2nn(Cc3ccccc3)c3ccccc23)o1` [Compound 2] returned a fEPSP of 165.9%.

Turning to `OCc1ccc(-c2nn(Cc3ccccc3)c3cc(F)ccc23)o1` [Compound 3], the fEPSP is given as 218.9%.

Take `COCc1ccc(-c2nn(Cc3ccccc3)c3ccccc23)o1` [Compound 4]: the fEPSP was 216.9%.

Compound `COc1ccc2c(-c3ccc(CO)o3)nn(Cc3ccccc3)c2c1` [Compound 5] gave a fEPSP of 180.8%.

`OCc1ccc(-c2nn(Cc3ccccc3)c3cc4c(cc23)OCO4)o1` [Compound 6] gave a fEPSP of 260.3%.

Take `COC(=O)c1ccc(-c2nn(Cc3ccccc3)c3ccccc23)o1` [Compound 7]: the fEPSP is reported as 200.3%.

In turn, `COC(=O)c1ccc(-c2n[nH]c3ccccc23)o1` [Compound 8] had a fEPSP of 180.6%.

The next assay deals with hippocampal slices taken from young rats. Briefly: Plasticity induced by low-frequency stimulation (LTD) in hippocampal slices. The note with it: 0.02 Hz stimulation; alone. In kind it is cell-based, Wistar rats. As to the method: After decapitation, brains of either adult ([…], for the induction of long-term potentiation) or young (2–3 weeks old, for the induction of long-term depression) Wistar rats were rapidly removed, and the hippocampus was dissected out. Transverse hippocampal slices (450 μm thickness) were immediately placed in an ice-cold cutting buffer containing 124 mM NaCl, 3 mM KCl, 1.0 mM Na2HPO4, 25 mM NaHCO3, 0.5 mM CaCl2, 5.0 mM MgSO4, 10 mM glucose, saturated with 95% O2 and 5% CO2. The slices were then maintained in an interface chamber at room temperature, and perfused at flow rate of 1–2 mL/min with artificial cerebrospinal fluid (ACSF). The composition of ACSF contained 124 mM NaCl, 4.4 mM KCl, 1.0 mM Na2HPO4, 25 mM NaHCO3, 2.0 mM or 2.5 mM CaCl2, 1.0 mM MgSO4, 10 mM glucose, gassed with 95% O2 and 5% CO2. The field Excitatory Postsynaptic Potentials (fEPSP) was evoked by test pulses through a bipolar stimulating electrode placed on the Schaffer collateral/commissural pathway, and recorded from the stratum radiatum of CA1 using a glass micropipette electrode (5–10 MΩ) filled with 2 M NaCl. The test pulse duration was 100 μsec, and test responses were elicited at 0.02 Hz. To record field potentials in the cortico-amygdala pathway, a stimulating electrode was placed in the external capsule, which contained fibers from the auditory cortex to the lateral amygdala. Bicuculine (10 μM) was present in the perfusion solution when the fEPSPs of amygdala were recorded. To increase the effectiveness of fused pyrazolyl compounds that were applied through the perfusion system, the ACSF level in the recording chamber was sufficiently high to cover the hippocampal slices but not to float them. All fused pyrazolyl compounds were perfused in ACSF.
Evoked fEPSPs were recorded and data were analyzed. The initial slope of the fEPSPs was calculated, and the data were expressed as percentages of the average of the base-line slope of the fEPSPs.
Compound 1 on plasticity induced by low-frequency stimulation (LFS): LFS (900 pulses at 1 Hz) was delivered to hippocampal slices taken from young rats ([…]) to induce long-term depression (LTD). Stimulation of hippocampal slices at 1 Hz for 3 min produced no LTD of synaptic transmission. However, this short-duration LFS induced significant LTD in the presence of Compound 1 (83.4±10.9%, n=3). […] A weaker electrical stimulation at 0.02 Hz was delivered in the presence of both nitric oxide donor nitroprusside ([…]) and Compound 1 (1.6 μM). Simultaneous perfusion of the nitric oxide donor nitroprusside (30 μM) and Compound 1 (1.6 μM) induced LTD.
As for nitroprusside [reference compound], the “potentiation of fEPSP at 0.02 Hz stimulation, substance alone” value is “produced no potentiation”.

Another assay has as its system rats (spatial memory). Briefly: Morris water maze. Format: in vivo. As to conditions: L-NAME intracerebroventricular (1 mmole/10 mL) 10 min before first trial of daily training. The method, then:
Morris water maze: Morris water maze was performed in a circular pool (224 cm in diameter, 46 cm in height) located in a room with distinctive visual cues. Water was filled to a depth of 36 cm and a transparent plastic platform (25×25 cm, 32 cm in height) was located at the center of a fixed quadrant. Rats were trained for two days in the task environment: free-swimming in the pool without the transparent plastic platform. Each training session was 2 min and the rats were picked up from the pool by an experimenter. Then, rats received 4 consecutive daily training trials for the following six days. During each training trial, each rat was placed into the water randomly from one of the quadrants. The rat had to swim until it climbed onto the plastic platform submerged underneath the water. The time duration from being placed into the water to climbing onto the plastic platform was recorded and defined as escape latency. […] Each rat stayed on the platform for 60 s, which also served as the interval of trial. Compound 1 (1 mg/kg) or vehicle was daily injected to each rat 10 min before the first training trial. After the last training trial of each day, each rat was dried by a towel, and an electric heater was placed in its home cage.
Substantial evidence implicates the hippocampus in acquisition and retention of spatial information. See, e.g., Ohon et al. (1979) Behav. Brain Sci. 2: 316–365; and Barnes (1988) Trend Neurosci. 11: 163–169. The effect of Compound 1 on the acquisition of spatial memory in the Morris water maze was tested. Rats received 4 consecutive training trials every day. Compound 1 (1 mg/kg) was daily injected (i.p., 1 mg/kg) 10 min before the first trial of training. […] The escape latencies of 2˜4 trials were 93.8±8.7 s, 79.3±12/3 s and 57.6±12.5 s for a control group, and 50.4±10.2 s, 47.3±6.8 s and 30.3±10.3 for the Compound 1 group (n=10), respectively. The escape latencies of the first trial on the following 3 training days were also markedly shortened in the Compound 1 group. The escape latencies were 91.1±9.8 s, 47.1±3.9 s and 35.3±6.1 s for the control group, and 55.4±12.8 s, 15.3±2.1 s, and 13.4±1.7 s for the Compound 1 group (n=10), respectively. […] The escape latency is shorter in the Compound 1 group throughout the whole experimental period up to 21 days although Compound 1 was only administered […] for 4 days. The mean escape latency on the day-21 is 13.5±1.8 s and 6.0±0.5 s (n=10 each) for the control group and the Compound 1 group, respectively. From results shown above, Compound 1 is a promising drug for improving learning and memory. Compound 1 was mixed with 1.25% carboxymethylcellulose (CMC) and orally delivered to stomach (10 mg/kg) directly 30 min before the first trial for 6 successive days.
Since L-NAME antagonized Compound 1-induced LTP enhancement in hippocampal slices, in vivo experiments were performed to test the effect of L-NAME on the improved learning and memory provoked by Compound 1. In these experiments, rats chronically implanted with cannulae were injected intracerebroventrically with L-NAME (1 mmole/10 mL) or saline 10 min before the first trial of daily training, concomitant with i.p. injection of Compound 1 (1 mg/kg). […] Intracerebroventricular administration of KT 5823 also impaired the Compound 1-induced enhancement.
For the compound `COC(=O)[C@@H](N)CCCNC(=N)N[N+](=O)[O-]` [L-NAME, N^G-nitro-L-arginine-methylester, reference compound], the “effect of L-NAME on the task” value is given as “profound amnesia”.

These data come from patent US7049334B2, “Enhancement of learning and memory and treatment of amnesia” (priority 2001, dated 2006).
